Measurements reported in PubChem BioAssay (NCI).
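These data come from cells grown in 96-well plates and exposed to compound for 48 hours at five concentrations. The concentration for 50% growth inhibition is given as GI50. TGI: concentration producing complete growth inhibition.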

Tests used:
Experiment in all cases: DTP human tumour cell line panel, 48 h
[1] = tested on: 786-0 renal
[2] = tested on: A498 renal
[3] = tested on: A549 NSCLC
[4] = tested on: ACHN renal
[5] = tested on: BT-549 breast
[6] = tested on: CCRF-CEM leukemia
[7] = tested on: COLO 205 colon
[8] = tested on: EKVX NSCLC
[9] = tested on: HCC-2998 colon
[10] = tested on: HCT-116 colon
[11] = tested on: HCT-15 colon
[12] = tested on: HL-60(TB) leukemia
[13] = tested on: HOP-62 NSCLC
[14] = tested on: HOP-92 NSCLC
[15] = tested on: HS 578T breast
[16] = tested on: HT29 colon
[17] = tested on: K-562 leukemia
[18] = tested on: KM12 colon
[19] = tested on: LOX IMVI melanoma
[20] = tested on: M14 melanoma
[21] = tested on: MALME-3M melanoma
[22] = tested on: MCF7 breast
[23] = tested on: MDA-MB-231 breast
[24] = tested on: MDA-MB-435
[25] = tested on: NCI-H226 lung
[26] = tested on: NCI-H23 lung
[27] = tested on: NCI-H522 lung
[28] = tested on: NCI/ADR-RES ovarian
[29] = tested on: OVCAR-3 ovarian
[30] = tested on: OVCAR-4 ovarian
[31] = tested on: OVCAR-5 ovarian
[32] = tested on: OVCAR-8 ovarian
[33] = tested on: PC-3 prostate
[34] = tested on: RPMI-8226 leukemia
[35] = tested on: RXF 393 renal
[36] = tested on: SF-268 CNS
[37] = tested on: SF-295 CNS
[38] = tested on: SF-539 CNS
[39] = tested on: SK-MEL-2 melanoma
[40] = tested on: SK-MEL-28 melanoma
[41] = tested on: SK-MEL-5 melanoma
[42] = tested on: SK-OV-3 ovarian
[43] = tested on: SN12C renal
[44] = tested on: SNB-19 CNS
[45] = tested on: SNB-75 CNS
[46] = tested on: SR leukemia
[47] = tested on: T-47D breast
[48] = tested on: TK-10 renal
[49] = tested on: U251 CNS
[50] = tested on: UACC-257 melanoma
[51] = tested on: UACC-62 melanoma
[52] = tested on: UO-31 renal

Work on `CC(C)[C@]12O[C@H]1[C@@H]1O[C@]13[C@]1(O[C@H]1C[C@H]1C4=C(CC[C@@]13C)C(=O)OC4)[C@@H]2OC(=O)CN(C)C` yielded a GI50 [1] of 32.6 nM, a TGI [1] greater than 100000 nM and a GI50 [2] of 16.1 nM. It also gave a TGI [2] of 48.3 nM, a GI50 [3] of 58.7 nM and a GI50 [4] of 21 nM. For the same molecule, the TGI [4] was greater than 100000 nM, the GI50 [5] was 18.4 nM and the TGI [5] was 56.4 nM. It also gave a GI50 [6] of 31.5 nM, a GI50 [7] of 17 nM and a TGI [7] of 42.4 nM. It also gave a GI50 [8] of 110 nM, a TGI [8] greater than 100000 nM and a GI50 [9] of 10.2 nM. For the same molecule, the TGI [9] was 44 nM, the GI50 [10] was 12.8 nM and the TGI [10] was greater than 100000 nM. It also gave a GI50 [11] of 29.1 nM, a TGI [11] greater than 100000 nM and a GI50 [12] of 15.3 nM. It also gave a TGI [12] of 118 nM, a GI50 [13] of 31.4 nM and a GI50 [14] of 38.3 nM. It also gave a GI50 [15] of 22.7 nM, a TGI [15] of 88.9 nM and a GI50 [16] of 17.9 nM. For the same molecule, the TGI [16] was greater than 100000 nM, the GI50 [17] was 28.3 nM and the TGI [17] was greater than 100000 nM. The GI50 [18] was 208 nM, the TGI [18] was 2640 nM and the GI50 [19] was 10.1 nM. The TGI [19] was greater than 100000 nM, the GI50 [20] was 17 nM and the TGI [20] was 37.3 nM. It also gave a GI50 [21] of 19.3 nM, a TGI [21] of 73.3 nM and a GI50 [22] of 22 nM. For the same molecule, the TGI [22] was greater than 100000 nM, the GI50 [23] was 57.8 nM and the TGI [23] was greater than 100000 nM. It also gave a GI50 [24] of 17.6 nM, a TGI [24] of 74.8 nM and a GI50 [25] of 19.1 nM. It also gave a TGI [25] of 178 nM, a GI50 [26] of 11.6 nM and a GI50 [27] of 21.6 nM. It also gave a TGI [27] of 110 nM, a GI50 [28] of 48.1 nM and a TGI [28] greater than 100000 nM. It also gave a GI50 [29] of 20.8 nM, a TGI [29] of 63.3 nM and a GI50 [30] of 32.6 nM. For the same molecule, the TGI [30] was greater than 46200 nM, the GI50 [31] was 49.1 nM and the TGI [31] was greater than 100000 nM. It also gave a GI50 [32] of 33.6 nM, a TGI [32] greater than 100000 nM and a GI50 [33] of 21.8 nM. The TGI [33] was greater than 100000 nM, the GI50 [34] was 18.1 nM and the TGI [34] was greater than 100000 nM. It also gave a GI50 [35] of 15.7 nM, a TGI [35] of 33.6 nM and a GI50 [36] of 37 nM. It also gave a TGI [36] of 367 nM, a GI50 [37] of 77.7 nM and a TGI [37] greater than 100000 nM. It also gave a GI50 [38] of 41.1 nM, a TGI [38] of 332 nM and a GI50 [39] of 26.7 nM. The TGI [39] was 73.2 nM, the GI50 [40] was 20.7 nM and the TGI [40] was 61.5 nM. It also gave a GI50 [41] of 15.2 nM, a TGI [41] of 39.6 nM and a GI50 [42] of 48.5 nM. It also gave a TGI [42] greater than 100000 nM, a GI50 [43] of 30.9 nM and a TGI [43] greater than 100000 nM. The GI50 [44] was 286 nM, the TGI [44] was greater than 100000 nM and the GI50 [45] was 28.6 nM. It also gave a TGI [45] of 141 nM, a GI50 [46] of 14.3 nM and a TGI [46] of 189 nM. The GI50 [47] was 34 nM, the TGI [47] was greater than 100000 nM and the GI50 [48] was 48 nM. It also gave a TGI [48] greater than 100000 nM, a GI50 [49] of 48.8 nM and a TGI [49] greater than 100000 nM. The GI50 [50] was 17.5 nM, the TGI [50] was 56.3 nM and the GI50 [51] was 22.8 nM. The TGI [51] was 72.4 nM, the GI50 [52] was 14.6 nM and the TGI [52] was greater than 100000 nM.
